Experimental data from US20080206761A1, “Ex Vivo Gene Expression in Whole Blood as a Model of Assessment of Individual Variation to Dietary Supplements” (priority 2005, published 2008).

Tested on: TNFSF15 mRNA
Test: TNFSF15 mRNA in whole blood after dietary component and heat-aggregated IgG stimulation
Type: cell-based, human
Procedure: The mRNA and cDNA were prepared from the whole blood that was exposed to the dietary components, as well as the whole blood which remained unexposed. In brief, home-made 96-well filterplates were placed over collection plates, and 150 μl 5 mM Tris, pH 7.4, was applied. Following centrifugation at 120×g for 1 min at 4° C., 50 μl of blood samples were applied to each well and immediately centrifuged at 120×g for 2 min at 4° C., followed by washing of each well with 300 μl PBS once with centrifugation at 2000×g for 5 min at 4° C. Then, 60 μl stock lysis buffer, containing for example 0.5% N-Lauroylsarcosine, 4×SSC, 10 mM Tris HCl, pH 7.4, 1 mM EDTA, 0.1% IGEPAL CA-630, and 1.791 M guanidine thiocyanate, supplemented with 1% 2-mercaptoethanol (Bio Rad, Hercules, Calif., USA), 0.5 mg/ml proteinase K (Pierce, Rockford, Ill., USA), 0.1 mg/ml salmon sperm DNA (5 Prime Eppendorf/Brinkmann, Westbury, N.Y., USA), 0.1 mg/ml E. coli tRNA (Sigma), a cocktail of 10 mM each of the specific reverse primers shown in Table 2, and standard RNA34 oligonucleotides, were applied to the filterplates, followed by incubation at 37° C. for 10 min. The filterplates were then placed over oligo(dT)-immobilized microplates (GenePlate, RNAture), and centrifuged at 2000×g for 5 min at 4° C. Following overnight storage at 4° C., the microplates were washed with 100 μl plain lysis buffer 3 times, followed by 150 μl of wash buffer (0.5 M NaCl, 10 mM Tris, pH 7.4, 1 mM EDTA) 3 times at 4° C. […] The Ct was determined by analytical software (SDS, ABI).
In this embodiment, heparinized whole blood of two individuals was pre-incubated with various dietary supplements at 37° C. for 30 minutes (at the same blood concentrations as in Embodiment 2), then stimulated with 1.2 μL of heat-aggregated IgG. […] The level of TNFSF3 and TNFSF15 mRNA was then assessed using the method described in Embodiment 1, with the exception that SYBR Green PCR was used to quantitate the mRNA. […]

## CC1=C(/C=C/C(C)=C/C=C/C(C)=C/CO)C(C)(C)CCC1 [VA, vitamin A]
FIG. 6, two cases, vitamin A 100 nmol/L
  effect on HAG-induced TNFSF15 expression, in words: eliminated the effect on HAG in one case (case 1)
FIG. 6, vitamin A 100 nmol/L
  baseline expression of TNFSF15, in words: decreased the baseline expression of TNFSF-15
FIG. 7 follow-up, seven cases overall, vitamin A only
  effect on HAG-induced TNFSF15 expression, in words: exhibited an inhibitory action on HAG-induced TNFSF15 expression in case 1, and in two of seven cases overall
